Test results taken from paper PMC11347161, “Sequence diversity of apidaecin-like peptides arresting the terminating ribosome” (Nucleic Acids Research, 2024).

System: E. coli BL21 cells
Experiment: Negative (depletion) selection of clones expressing Api variants, NGS
Format: cell-based
Settings: log2-fold change of clone abundance, three replicates, edgeR
Procedure: Prior to the library screening, pilot experiments were conducted to optimize arabinose concentration. To achieve this, E. coli BL21 cells transformed with the pApi plasmid carrying the wt Api gene were plated on LB/agar plates supplemented with Amp and increasing concentrations of arabinose in the 0.05–0.2% range. […] Subsequent library depletion experiments were carried out on plates containing 0.05% arabinose.
For the negative selection targeted at depleting the clones expressing active Api-like peptides, the 2 ml library stock containing a total of ∼2 × 10^9 colony forming units (cfu) was thawed, diluted 3-fold in LB medium and allowed to recover for 30 min at 37°C. Subsequently, the cultures with the recovered cells were thoroughly mixed, and equal volumes (300 μl) were plated on ten LB/Amp plates supplemented with 2% glucose (for the total library) or ten LB/Amp plates supplemented with 0.05% arabinose (for the library depleted of clones expressing active Api variants). After incubation at 37°C for 16 h, clones were washed off the plates and cell suspensions were used for preparation of the total plasmid, resulting in the pApi(Glu) and pApi(Ara) plasmid preps. The depletion experiments were carried out in three independent replicates.
For deep sequencing of the genes encoding Api-like peptides, the peptide-coding genes were PCR-amplified from the total pApi(Glu) and pApi(Ara) plasmids. Two 50 μl PCR reactions were carried out for each sample using Q5 DNA polymerase (New England Biolabs). The reactions were run in the manufacturer provided buffer, each reaction containing 20 ng of plasmid DNA and 10 pmol of primers Api_Lib_F_i5X and Api_Lib_R_i7X (Supplementary Table S2) which added specific bar codes to the individual samples. PCR amplification was carried out under the following conditions: 98°C, 30 s; 10 cycles of [98°C/10 s, 56°C/20 s, 72°C/10 s]; 72°C 120 s. The PCR products were size-fractionated and extracted from the denaturing 8% polyacrylamide gel. Bar-coded DNA libraries (Supplementary Figure S1B) were combined and sequenced on Illumina MiSeq after being spiked in with PhiX Control v3 library (Illumina) to compensate for sequence diversity of the sample.
Sequencing has generated >350 million total reads for the three unselected samples and > 300 million total reads for the depleted library samples. The raw reads were trimmed to the size of the peptide gene and those containing internal ambiguous bases or being less than 60 bases in length were discarded. The nucleotide sequences were translated into amino acid sequences and the peptides lacking N-terminal methionine or deviating from the size of the expected sequence were eliminated. Peptides with <100 reads in each of the pApi(Glu) samples were also discarded. Subsequently, the filtered data underwent differential abundance analysis using the standard workflow of edgeR within the R/Bioconductor package ([27]). This analysis generated logFC (the log2-fold change of unique peptides between Glu and Ara samples), q-values (adjusted P-values with the FDR correction), and log10 CPM values (log counts per million), detailed in Dataset 1. A volcano plot was generated in R to visualize the differential abundance of unique peptides based on these parameters.

[1] = sheet Negative Selection logFC>1, q<0.005 (putatively functional variants), arabinose vs glucose, endogenously expressed peptide
[2] = sheet diff-NS-All, induced (0.05% arabinose) vs non-induced (2% glucose), endogenously expressed peptide with N-terminal Met

Row | Substance | Ara/Glu: logFC [1] | Ara/Glu: logFC [2]
1 | MGNNRKVYIGEPRPPYPRL* [endogenously expressed Api library variant K6,G10,E11,Y16 (numbering includes Met)] | -4.01 | -4.01
2 | MGNNRNVYIAQPRPYHPRI* [endogenously expressed Api library variant N6,A10,Y15,I19 (numbering includes Met)] |  | -4.88
3 | MLNNIGVQVPKPRPPHPRL* [endogenously expressed Api library variant L2,I5,G6,Q8,V9,K11 (numbering includes Met)] |  | -3.95
4 | MTNNRKVYEPEPRPPHPRL* [endogenously expressed Api library variant T2,K6,E9,E11 (numbering includes Met)] | -4.06 | -4.06
